{"source": "paper PMC9944328", "about": "(Nature Communications, 2023)", "tested_on": "SSTR2 mutants", "test": "SSTRs Gi-mediated cAMP inhibition, GloSensor, HEK293, 5 μM forskolin, 15 min room temperature (SSTR2 mutants)", "format": "cell-based, human", "method": "The levels of the intracellular 3′, 5′-cyclic AMP (cAMP) were measured by the GloSensor cAMP assay (Promega) as described in the previous studies[28],[41] which has been widely used. The human full-length SSTRs and mutants were cloned into the pcDNA3.1+ vector with a HA signal sequence followed by a Flag tag at the N-terminus. HEK293 cells (ATCC, CRL-1573) were seeded into 6-well microplates at a density of 1.0 × 10^6 cells/well and cultured for 24 h at 37 °C with 5% CO2. Cells were then co-transfected with SSTR wild-type or mutants and GloSensor plasmids. After 24 h of transfection, the cells were dissociated with TrypLE™ Express Enzyme (1X) (Thermo Fisher Scientific) and collected by centrifugation at 500 × g for 5 min. Then the collected cells were suspended in Hank’s balanced salt solution [HBSS (Thermo Fisher Scientific)] supplemented with […] (YEASEN), and then the suspension cells were seeded into 96-well plates with 90 μl/well. After incubating at room temperature for 40 min, 5 μM forskolin and ligands diluted in HBSS were added to each well and the plates were incubated at room temperature for 15 min. […] were measured using the Synergy H1 microplate reader (BioTek) and the data presented are means of at least three independent experiments.", "key": {"[1]": {"conditions": "Suppl. Table 4, SSTR2 D295(7.36)F, n=3"}, "[2]": {"conditions": "Suppl. Table 4, SSTR2 F294(7.35)Y, n=3"}, "[3]": {"conditions": "Suppl. Table 4, SSTR2 I195(45.52)M, n=3"}, "[4]": {"conditions": "Suppl. Tables 4/5, SSTR2 V103(2.64)N, n=3"}}, "data": [{"smiles": "N#Cc1cccc(-c2ccc3ncc(-c4cc(F)cc(F)c4)c(N4CCC(N)CC4)c3c2)c1O", "note": "[paltusotine]", "values": [{"measurement": "Span (best-fit value)", "setting": "P220A-2 (run 2)", "result": 119.1}, {"measurement": "Top (best-fit value)", "setting": "P220A-2 (run 2)", "result": 123.6}, {"measurement": "Bottom (best-fit value)", "setting": "P220A-3 (run 3)", "result": 2.569}, {"measurement": "LogEC50 (best-fit value)", "setting": "P220A-3 (run 3)", "result": -8.511}, {"measurement": "Span (best-fit value)", "setting": "P220A-3 (run 3)", "result": 103.4}, {"measurement": "Top (best-fit value)", "setting": "P220A-3 (run 3)", "result": 106}, {"measurement": "Fold of WT", "setting": "Suppl. Table 4, SSTR2 D295(7.36)F", "result": 0.67}, {"measurement": "EC50", "setting": "[1]", "result": "1.39 ± 1.95", "unit": "nM"}, {"measurement": "Emax", "setting": "[1]", "result": "75.57±7.43", "unit": "%WT SSTR2"}, {"measurement": "Fold of WT", "setting": "Suppl. Table 4, SSTR2 F294(7.35)Y", "result": 0.48}, {"measurement": "EC50", "setting": "[2]", "result": "0.99 ± 1.3", "unit": "nM"}, {"measurement": "Emax", "setting": "[2]", "result": "103.10±3.86", "unit": "%WT SSTR2"}, {"measurement": "Fold of WT", "setting": "Suppl. Table 4, SSTR2 I195(45.52)M", "result": 1.47}, {"measurement": "EC50", "setting": "[3]", "result": "3.05 ± 1.57", "unit": "nM"}, {"measurement": "Emax", "setting": "[3]", "result": "89.43±6.05", "unit": "%WT SSTR2"}, {"measurement": "Fold of WT", "setting": "Suppl. Table 4, SSTR2 Y205(5.35)R", "result": 0.16}, {"measurement": "EC50", "setting": "Suppl. Table 4, SSTR2 Y205(5.35)R, n=3", "result": 0.34, "unit": "nM"}, {"measurement": "Fold of WT", "setting": "Suppl. Tables 4/5, SSTR2 T194(45.51)H", "result": 72.45}, {"measurement": "Emax", "setting": "Suppl. Tables 4/5, SSTR2 T194(45.51)H, n=3", "result": "103.80±12.72", "unit": "%WT SSTR2"}, {"measurement": "Fold of WT", "setting": "Suppl. Tables 4/5, SSTR2 V103(2.64)N", "result": 5.75}, {"measurement": "EC50", "setting": "[4]", "result": "12 ± 1.33", "unit": "nM"}, {"measurement": "Emax", "setting": "[4]", "result": "99.52±4.73", "unit": "%WT SSTR2"}, {"measurement": "Receptor activation of mutant", "setting": "T194(45.51)H in SSTR2", "result": "significantly reduced receptor activation"}, {"measurement": "EC50", "setting": "T194A, run 1, best-fit", "result": 54.2, "unit": "nM"}, {"measurement": "LogEC50", "setting": "T194A, run 1, best-fit", "result": -7.266}, {"measurement": "EC50", "setting": "T194A, run 2, best-fit", "result": 52.7, "unit": "nM"}, {"measurement": "LogEC50", "setting": "T194A, run 2, best-fit", "result": -7.278}, {"measurement": "EC50", "setting": "T194A, run 3, best-fit", "result": 125, "unit": "nM"}, {"measurement": "LogEC50", "setting": "T194A, run 3, best-fit", "result": -6.904}, {"measurement": "Bottom (best-fit)", "setting": "T194H, run 1", "result": 6.584}, {"measurement": "EC50", "setting": "T194H, run 1", "result": 123, "unit": "nM"}, {"measurement": "LogEC50", "setting": "T194H, run 1", "result": -6.909}, {"measurement": "Span (best-fit)", "setting": "T194H, run 1", "result": 95.8}, {"measurement": "Top (best-fit)", "setting": "T194H, run 1", "result": 102.4}, {"measurement": "Bottom (best-fit)", "setting": "T194H, run 2", "result": -1.67}, {"measurement": "EC50", "setting": "T194H, run 2", "result": 151, "unit": "nM"}, {"measurement": "LogEC50", "setting": "T194H, run 2", "result": -6.822}, {"measurement": "Span (best-fit)", "setting": "T194H, run 2", "result": 105.4}, {"measurement": "Top (best-fit)", "setting": "T194H, run 2", "result": 103.8}, {"measurement": "Bottom (best-fit)", "setting": "T194H, run 3", "result": -5.336}, {"measurement": "EC50", "setting": "T194H, run 3", "result": 125, "unit": "nM"}, {"measurement": "LogEC50", "setting": "T194H, run 3", "result": -6.902}, {"measurement": "Span (best-fit)", "setting": "T194H, run 3", "result": 128.8}, {"measurement": "Top (best-fit)", "setting": "T194H, run 3", "result": 123.4}, {"measurement": "Impact on Gi signaling", "setting": "V103(2.64)A", "result": "less impact on Gi signaling"}, {"measurement": "Receptor activation of mutant", "setting": "V103(2.64)N in SSTR2", "result": "reduced receptor activation induced by paltusotine"}, {"measurement": "Bottom (best-fit)", "setting": "V103N, run 1", "result": 8.462}, {"measurement": "EC50", "setting": "V103N, run 1", "result": 11.7, "unit": "nM"}, {"measurement": "LogEC50", "setting": "V103N, run 1", "result": -7.932}, {"measurement": "Span (best-fit)", "setting": "V103N, run 1", "result": 90.96}, {"measurement": "Top (best-fit)", "setting": "V103N, run 1", "result": 99.42}, {"measurement": "Bottom (best-fit)", "setting": "V103N, run 2", "result": -2.517}, {"measurement": "EC50", "setting": "V103N, run 2", "result": 36.2, "unit": "nM"}, {"measurement": "LogEC50", "setting": "V103N, run 2", "result": -7.441}, {"measurement": "Span (best-fit)", "setting": "V103N, run 2", "result": 109.6}, {"measurement": "Top (best-fit)", "setting": "V103N, run 2", "result": 107.1}, {"measurement": "Bottom (best-fit)", "setting": "V103N, run 3", "result": -1.625}, {"measurement": "EC50", "setting": "V103N, run 3", "result": 11.7, "unit": "nM"}, {"measurement": "LogEC50", "setting": "V103N, run 3", "result": -7.93}, {"measurement": "Span (best-fit)", "setting": "V103N, run 3", "result": 109.5}, {"measurement": "Top (best-fit)", "setting": "V103N, run 3", "result": 107.8}, {"measurement": "Bottom (best-fit value)", "setting": "W269A-1 (run 1)", "result": -6.112}, {"measurement": "LogEC50 (best-fit value)", "setting": "W269A-1 (run 1)", "result": -9.221}, {"measurement": "Span (best-fit value)", "setting": "W269A-1 (run 1)", "result": 105.6}, {"measurement": "Top (best-fit value)", "setting": "W269A-1 (run 1)", "result": 99.48}, {"measurement": "Bottom (best-fit value)", "setting": "W269A-2 (run 2)", "result": -8.179}, {"measurement": "LogEC50 (best-fit value)", "setting": "W269A-2 (run 2)", "result": -9.298}, {"measurement": "Span (best-fit value)", "setting": "W269A-2 (run 2)", "result": 111.2}, {"measurement": "Top (best-fit value)", "setting": "W269A-2 (run 2)", "result": 103}, {"measurement": "Bottom (best-fit value)", "setting": "W269A-3 (run 3)", "result": -4.689}, {"measurement": "LogEC50 (best-fit value)", "setting": "W269A-3 (run 3)", "result": -9.219}, {"measurement": "Span (best-fit value)", "setting": "W269A-3 (run 3)", "result": 124.8}, {"measurement": "Top (best-fit value)", "setting": "W269A-3 (run 3)", "result": 120.1}, {"measurement": "EC50", "setting": "Y50A, run 1, best-fit", "result": 3.61, "unit": "nM"}, {"measurement": "LogEC50", "setting": "Y50A, run 1, best-fit", "result": -8.443}, {"measurement": "EC50", "setting": "Y50A, run 2, best-fit", "result": 3.74, "unit": "nM"}, {"measurement": "LogEC50", "setting": "Y50A, run 2, best-fit", "result": -8.427}, {"measurement": "EC50", "setting": "Y50A, run 3, best-fit", "result": 3.4, "unit": "nM"}, {"measurement": "LogEC50", "setting": "Y50A, run 3, best-fit", "result": -8.469}, {"measurement": "Bottom (best-fit value)", "setting": "Y205A-1 (run 1)", "result": 11.16}, {"measurement": "LogEC50 (best-fit value)", "setting": "Y205A-1 (run 1)", "result": -9.464}, {"measurement": "Span (best-fit value)", "setting": "Y205A-1 (run 1)", "result": 82.7}, {"measurement": "Top (best-fit value)", "setting": "Y205A-1 (run 1)", "result": 93.87}, {"measurement": "Bottom (best-fit value)", "setting": "Y205A-2 (run 2)", "result": -6.723}, {"measurement": "LogEC50 (best-fit value)", "setting": "Y205A-2 (run 2)", "result": -9.038}, {"measurement": "Span (best-fit value)", "setting": "Y205A-2 (run 2)", "result": 105.5}, {"measurement": "Top (best-fit value)", "setting": "Y205A-2 (run 2)", "result": 98.77}, {"measurement": "Bottom (best-fit value)", "setting": "Y205A-3 (run 3)", "result": 0.8743}, {"measurement": "LogEC50 (best-fit value)", "setting": "Y205A-3 (run 3)", "result": -9.745}, {"measurement": "Span (best-fit value)", "setting": "Y205A-3 (run 3)", "result": 102.6}, {"measurement": "Top (best-fit value)", "setting": "Y205A-3 (run 3)", "result": 103.5}, {"measurement": "LogEC50", "setting": "Y205R, run 1", "result": -9.464}, {"measurement": "Span (best-fit)", "setting": "Y205R, run 1", "result": 104.7}, {"measurement": "Top (best-fit)", "setting": "Y205R, run 1", "result": 106.2}, {"measurement": "LogEC50", "setting": "Y205R, run 2", "result": -9.626}, {"measurement": "Span (best-fit)", "setting": "Y205R, run 2", "result": 101.5}, {"measurement": "Top (best-fit)", "setting": "Y205R, run 2", "result": 105.3}, {"measurement": "LogEC50", "setting": "Y205R, run 3", "result": -8.061}, {"measurement": "Span (best-fit)", "setting": "Y205R, run 3", "result": 97.31}, {"measurement": "Top (best-fit)", "setting": "Y205R, run 3", "result": 99.13}, {"measurement": "Bottom (best-fit value), cAMP inhibition", "setting": "Y302A-1 (run 1)", "result": 5.692}]}]}
